Measured values: patent US8557971B2, “Chimeric viral envelopes” (Aarhus Universitet, priority 2006, dated 2013)

Columns and labels:
NIH 3T3 = test: Titer (transduction) of chimeric envelope constructs on NIH 3T3 cells; type: cell-based, mouse; conditions: qualitative; FIG. 12
Description: Transfections were done by calcium phosphate precipitation method, described by Graham and van der Eb (Graham and van der Eb, 1973) leaving the calcium precipitate on the cells for 24 hours. 293T cells were transfected using 8 μg of envelope expression plasmid, 2 μg gagpol expression plasmid (Morita et al., 2000) and 1 μg of an EGFP expressing plasmid. EGFP was included as a visual aid to determine the success of transfections. Medium on the transfected cells was renewed every day until it was used for transduction, usually between 48 and 72 hours after transfection, depending on the number of green fluorescing cells.
The day before transduction, medium was changed from fetal calf serum to newborn calf serum containing medium. Semi-packaging cells (Bahrami et al., 2003) were seeded at concentration of 10^4 cells/cm^2 24 hours before transduction.
Supernatant from transfected cells was filtered (0.22μ). The supernatant with 6 μg/mL polybrene was added to the target cells. 24 hours later, the infected cells were selected using medium described before containing 600 μg/mL G418 for 10 days.

CXCR4 = molecular target: T1, CXCR4 (Homo sapiens, UniProt P61073); test: Flow cytometry of cell surface expression of CXCR4 on transduced D17 CD4 CXCR4 cells; type: cell-based; conditions: D17 CD4 CXCR4 cells transduced with envelope vector; FIG. 6
T1 construct: expressed in transfected cells; host or cells: D17 (dog) cells carrying CD4 and CXCR4
T1 sequence (P61073 whole entry): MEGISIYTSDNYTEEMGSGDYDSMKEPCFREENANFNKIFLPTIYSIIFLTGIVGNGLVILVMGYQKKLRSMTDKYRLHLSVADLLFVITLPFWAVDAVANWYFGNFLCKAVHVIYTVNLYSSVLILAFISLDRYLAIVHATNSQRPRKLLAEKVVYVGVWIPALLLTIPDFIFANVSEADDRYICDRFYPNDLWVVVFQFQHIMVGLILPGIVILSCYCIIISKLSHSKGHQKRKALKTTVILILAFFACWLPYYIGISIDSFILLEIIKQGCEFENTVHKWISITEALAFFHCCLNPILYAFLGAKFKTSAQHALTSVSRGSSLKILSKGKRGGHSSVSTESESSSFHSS
Description: Method: Flow cytometric analysis was carried out of Cell Surface Expression (CSE) of CXCR4 of cells transduced with vectors comprising the chimeric envelope polypeptide of the present invention. D17 CD4 CXCR4 cells were transduced with a vector expressing SL3-2 envelope with V3 loop inserted at positions indicated.
[…]; 315:51-61). The virus containing supernatant was subsequently used to transduce the D17 CXCR4CD4 cells.
Six chimeric variants have been tested (sequences used shown in SEQ ID NO: 3-8 and 42-47). In all panels the control D17 CD4 CXCR4 cells with […] envelope only (without the V3 insert) was tested against the same envelope comprising a V3 loop variant.
Protocol for flow cytometry: • Harvest cells (by nice trypzination) and spin down gently (1200 rpm, 5 min) • Keep cells on ice in all subsequent steps. • Wash once in wash buffer (2% Serum, 98% PBS—cold) ? […]

wild-type SL3-2: SL3-2 murine leukaemia virus envelope polypeptide (SEQ ID NO: 2 / 60) [reference compound]
Infection of NIH mouse cells (NIH 3T3): can be infected
Binding of anti CXCR-4 antibody / CXCR-4 cell surface expression level (CXCR4): does not affect the expression levels of CXCR-4
